Measurements published in patent US8377884B2, “Variants of C-type natriuretic peptides” (Biomarin Pharmaceutical Inc., priority 2007, dated 2013).
“Also recorded” adds a separate entry of the source. Where two headings read alike, the source gives them in different places. Bridge positions count the residues as written; N and C are the ends. Square brackets hold non-standard residues; d marks the D form. Peptide text beside a SMILES is read from it. * marks the point of attachment. CH3O(CH2CH2O)11CH2CH2CO = COCCOCCOCCOCCOCCOCCOCCOCCOCCOCCOCCOCCC(=O)*; Tle = CC(C)(C)[C@H](N)C(=O)O

Tests used:
NPR-B = biological target: T1, NPR-B (Mus musculus, UniProt Q6VVW5); test: Stimulation of cGMP production in NIH3T3 cells; format: cell-based, Murine; details: for cGMP response relative to 1 uM CNP22 (%) at 0.01 µM: read-out: cGMP Response rel. to 1 uM CNP22, 10 nM; for cGMP response relative to 1 uM CNP22 (%) at 1 µM: read-out: cGMP Response rel. to 1 uM CNP22, 1 uM
T1 construct: Murine NIH3T3 cells express endogenously the CNP signaling receptor, NPR-B; endogenous in cells; host or cells: NIH3T3 (murine fibroblasts)
T1 sequence (Q6VVW5 17-1047): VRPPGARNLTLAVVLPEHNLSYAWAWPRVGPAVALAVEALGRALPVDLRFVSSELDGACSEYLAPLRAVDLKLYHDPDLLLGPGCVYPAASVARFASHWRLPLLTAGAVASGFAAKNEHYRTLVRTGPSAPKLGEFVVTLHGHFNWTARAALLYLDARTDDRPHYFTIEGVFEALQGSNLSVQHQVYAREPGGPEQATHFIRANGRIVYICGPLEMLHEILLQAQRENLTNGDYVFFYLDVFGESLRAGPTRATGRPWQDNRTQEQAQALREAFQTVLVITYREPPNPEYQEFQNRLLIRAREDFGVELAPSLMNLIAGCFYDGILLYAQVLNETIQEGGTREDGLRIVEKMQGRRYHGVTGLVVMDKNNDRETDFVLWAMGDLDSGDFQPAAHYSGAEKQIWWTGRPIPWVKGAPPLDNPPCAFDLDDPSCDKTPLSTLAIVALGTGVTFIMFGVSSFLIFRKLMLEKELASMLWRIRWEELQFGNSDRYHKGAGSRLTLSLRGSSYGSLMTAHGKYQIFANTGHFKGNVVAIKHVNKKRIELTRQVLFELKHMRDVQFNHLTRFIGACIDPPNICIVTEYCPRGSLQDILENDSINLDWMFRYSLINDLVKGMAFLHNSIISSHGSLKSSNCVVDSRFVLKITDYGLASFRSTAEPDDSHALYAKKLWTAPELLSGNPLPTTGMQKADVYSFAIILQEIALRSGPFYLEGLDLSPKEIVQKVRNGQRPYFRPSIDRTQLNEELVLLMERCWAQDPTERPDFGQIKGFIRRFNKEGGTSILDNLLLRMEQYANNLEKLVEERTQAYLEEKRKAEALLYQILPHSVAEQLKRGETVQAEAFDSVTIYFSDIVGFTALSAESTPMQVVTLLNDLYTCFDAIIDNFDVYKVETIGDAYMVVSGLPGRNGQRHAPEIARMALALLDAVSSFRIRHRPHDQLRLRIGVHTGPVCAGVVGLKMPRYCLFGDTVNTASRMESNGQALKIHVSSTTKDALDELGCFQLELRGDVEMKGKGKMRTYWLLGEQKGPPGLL

Recombinant human NEP = Recombinant human NEP (Homo sapiens, UniProt P08473); test: In vitro neutral endopeptidase (NEP) cleavage assay
Procedure, shortened: (§1)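 Recombinant human NEP (1 ug/mL final) incubated with 100 uM CNP variant in 0.1 M Tris, pH 7, at 37° C for various times, then quenched with EDTA (10 mM final) and heat. Samples reduced and analysed by HPLC and mass spectrometry. Half-life derived from loss of intact variant over time.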

[1] = biological target: neutral endopeptidase (NEP) (Homo sapiens, UniProt P08473); test: as above; details: human, pH 7
Procedure, shortened: as §1

[2] = in vitro NEP cleavage assay, assay period 160 minutes
[3] = NIH3T3 cells, 10 nM natriuretic peptide, normalized to cell number and cGMP production with 1 uM wtCNP22
[4] = NIH3T3 cells, 1 uM natriuretic peptide, normalized to cell number and cGMP production with 1 uM wtCNP22

Chain of Recombinant human NEP (P08473 whole entry): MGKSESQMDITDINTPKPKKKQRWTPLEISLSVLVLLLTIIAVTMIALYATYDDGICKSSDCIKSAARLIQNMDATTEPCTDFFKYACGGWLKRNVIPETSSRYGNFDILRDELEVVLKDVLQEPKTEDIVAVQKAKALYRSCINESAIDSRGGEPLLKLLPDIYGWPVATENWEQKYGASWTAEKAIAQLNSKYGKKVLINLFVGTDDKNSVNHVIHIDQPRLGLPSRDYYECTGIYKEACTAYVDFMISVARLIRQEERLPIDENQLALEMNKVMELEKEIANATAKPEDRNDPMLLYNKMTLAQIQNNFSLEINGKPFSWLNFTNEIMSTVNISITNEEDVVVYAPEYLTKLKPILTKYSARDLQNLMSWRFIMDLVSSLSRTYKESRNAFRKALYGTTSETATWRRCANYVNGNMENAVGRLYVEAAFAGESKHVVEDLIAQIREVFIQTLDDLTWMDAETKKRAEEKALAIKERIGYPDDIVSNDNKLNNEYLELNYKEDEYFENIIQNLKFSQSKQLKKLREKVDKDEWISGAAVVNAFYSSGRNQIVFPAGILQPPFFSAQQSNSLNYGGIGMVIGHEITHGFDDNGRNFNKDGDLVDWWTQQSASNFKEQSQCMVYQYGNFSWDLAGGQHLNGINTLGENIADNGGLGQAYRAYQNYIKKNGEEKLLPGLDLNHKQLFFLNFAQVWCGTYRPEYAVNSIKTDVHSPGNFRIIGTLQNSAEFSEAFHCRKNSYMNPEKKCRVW
Chain of neutral endopeptidase (NEP) (P08473 whole entry): as above

cGMP response relative to 1 uM CNP22 (%) at 0.01 µM (NPR-B; [3])	cGMP response relative to 1 uM CNP22 (%) at 1 µM (NPR-B; [4])	SMILES	cGMP response relative to 1 uM CNP22 (%) at 0.01 µM (NPR-B; NIH3T3, […])	cGMP response relative to 1 uM CNP22 (%) at 1 µM (NPR-B; NIH3T3, […])	resistance to NEP cleavage/degradation (in words) (Recombinant human NEP; [2])	half-life at 100 uM [1]	other results
		CC[C@H](C)[C@@H]1NC(=O)[C@H](CCCNC(=N)N)NC(=O)[C@H](CC(=O)O)NC(=O)[C@H](CC(C)C)NC(=O)[C@H](CCCCN)NC(=O)[C@H](CC(C)C)NC(=O)CNC(=O)[C@H](Cc2ccccc2)NC(=O)[C@@H](NC(=O)CNC(=O)[C@H](CCCNC(=N)N)NC(=O)[C@H](CO)NC(=O)[C@H](CC(C)C)NC(=O)CN)CSSC[C@@H](C(=O)O)NC(=O)CNC(=O)[C@H](CC(C)C)NC(=O)CNC(=O)[C@H](CO)NC(=O)[C@H](CCSC)NC(=O)[C@H](CO)NC(=O)[C@H](CO)NC1=O [BK] (H-GLSRGCFGLKLDRISSMSGLGC-OH; disulfide 6-22 (inferred); N-terminus and C-terminus assumed)	13 ± 1%	71 ± 11%	greatest resistance to NEP cleavage	≥ 2.67 h	
		CC[C@H](C)[C@@H]1NC(=O)[C@H](CCCNC(=N)N)NC(=O)[C@H](CC(=O)O)NC(=O)[C@H](CC(C)C)NC(=O)[C@H](CCCCN)NC(=O)[C@H](CC(C)C)NC(=O)CNC(=O)[C@H](Cc2ccccc2)NC(=O)[C@@H](NC(=O)CNC(=O)[C@H](CCCCN)NC(=O)[C@H](CO)NC(=O)[C@H](CC(C)C)NC(=O)CNC(=O)[C@H](CO)NC(=O)[C@@H]2CCCN2C(=O)[C@@H]2CCCN2C(=O)[C@H](CC(C)C)NC(=O)[C@@H](NC(=O)[C@H](Cc2ccc(O)cc2)NC(=O)[C@@H](NC(=O)[C@H](CCC(N)=O)NC(=O)[C@@H]2CCCN2C(=O)[C@H](CCC(=O)O)NC(=O)[C@H](CCCNC(=N)N)NC(=O)[C@@H]2CCCN2C(=O)[C@H](CCC(N)=O)NC(=O)CN)C(C)C)[C@@H](C)O)CSSC[C@@H](C(=O)O)NC(=O)CNC(=O)[C@H](CC(C)C)NC(=O)CNC(=O)[C@H](CO)NC(=O)[C@H](CCSC)NC(=O)[C@H](CO)NC(=O)CNC1=O [CF] (H-GQPREPQVYTLPPSGLSKGCFGLKLDRIGSMSGLGC-OH; disulfide 20-36 (inferred); N-terminus and C-terminus assumed)	23 ± 9%	72 ± 19%	most resistant to NEP degradation; also recorded: much more resistant to NEP cleavage than CNP22	> 2.67 h	
		CC[C@@H](C)[C@H]1NC(=O)[C@@H](CCCNC(=N)N)NC(=O)[C@@H](CC(=O)O)NC(=O)[C@@H](CC(C)C)NC(=O)[C@@H](CCCCN)NC(=O)[C@@H](CC(C)C)NC(=O)CNC(=O)[C@@H](Cc2ccccc2)NC(=O)[C@H](NC(=O)CNC(=O)[C@@H](CCCCN)NC(=O)[C@@H](CO)NC(=O)[C@@H](CC(C)C)NC(=O)CN)CSSC[C@H](C(=O)O)NC(=O)CNC(=O)[C@@H](CC(C)C)NC(=O)CNC(=O)[C@@H](CO)NC(=O)[C@@H](CCSC)NC(=O)[C@@H](CO)NC(=O)CNC1=O [N]	2%	1%	greatest resistance to NEP cleavage	> 2.67 h	
3%	35%	CC[C@H](C)[C@@H]1NC(=O)[C@H](CCCNC(=N)N)NC(=O)[C@H](CC(=O)O)NC(=O)[C@H](CC(C)C)NC(=O)[C@H](CCCCN)NC(=O)[C@H](CC(C)C)NC(=O)CNC(=O)[C@H](Cc2ccccc2)NC(=O)[C@@H](NC(=O)CNC(=O)[C@H](CCCNC(=N)N)NC(=O)[C@H](CO)NC(=O)[C@H](CC(C)C)NC(=O)CNC(=O)[C@H](CCC(N)=O)NC(=O)[C@H](CCC(N)=O)NC(=O)[C@H](CC(N)=O)NC(=O)[C@H](C)NC(=O)CNC(=O)[C@@H](NC(=O)[C@H](CO)NC(=O)[C@@H](NC(=O)[C@H](CO)NC(=O)[C@@H](NC(=O)[C@H](CCC(N)=O)NC(=O)[C@@H]2CCCN2C(=O)[C@@H](NC(=O)CN)C(C)C)C(C)C)[C@@H](C)O)[C@@H](C)O)CSSC[C@@H](C(=O)O)NC(=O)CNC(=O)[C@H](CC(C)C)NC(=O)CNC(=O)[C@H](CO)NC(=O)[C@H](CCSC)NC(=O)[C@H](CO)NC(=O)CNC1=O [CL] (H-GVPQVSTSTGANQQGLSRGCFGLKLDRIGSMSGLGC-OH; disulfide 20-36 (inferred); N-terminus and C-terminus assumed)				> 2.67 h	resistance to NEP cleavage/degradation (in words) (Recombinant human NEP): most resistant to NEP degradation
2%	18%	CC[C@H](C)[C@@H]1NC(=O)[C@H](CCCNC(=N)N)NC(=O)[C@H](CC(=O)O)NC(=O)[C@H](CC(C)C)NC(=O)[C@H](CCCCN)NC(=O)[C@H](CC(C)C)NC(=O)[C@H](C(C)(C)C)NC(=O)[C@H](Cc2ccccc2)NC(=O)[C@@H](NC(=O)CNC(=O)[C@H](CCCCN)NC(=O)[C@H](CO)NC(=O)[C@H](CC(C)C)NC(=O)CN)CSSC[C@@H](C(=O)O)NC(=O)CNC(=O)[C@H](CC(C)C)NC(=O)CNC(=O)[C@H](CO)NC(=O)[C@H](CCSC)NC(=O)[C@H](CO)NC(=O)CNC1=O [F] (H-GLSKGCF[Tle]LKLDRIGSMSGLGC-OH; disulfide 6-22 (inferred); N-terminus and C-terminus assumed)					resistance to cleavage at the Cys6-Phe7 bond relative to wtCNP22 (Recombinant human NEP): resistance or improved resistance; half-life at 100 uM ([1]; recombinant human neutral endopeptidase (NEP)): 1.33 h
		CC[C@H](C)[C@@H]1NC(=O)[C@H](CCCNC(=N)N)NC(=O)[C@H](CC(=O)O)NC(=O)[C@H](CC(C)C)NC(=O)[C@H](CCCCN)NC(=O)[C@H](CC(C)C)NC(=O)CNC(=O)[C@H](Cc2cccc(Cl)c2)NC(=O)[C@@H](NC(=O)CNC(=O)[C@H](CCCCN)NC(=O)[C@H](CO)NC(=O)[C@H](CC(C)C)NC(=O)CN)CSSC[C@@H](C(=O)O)NC(=O)CNC(=O)[C@H](CC(C)C)NC(=O)CNC(=O)[C@H](CO)NC(=O)[C@H](CCSC)NC(=O)[C@H](CO)NC(=O)CNC1=O [G]	17%	93%		2.25 h	half-life in comparison to wtCNP22 (Recombinant human NEP; NEP at 1 ug/ml): about 1.5 times; resistance to cleavage at the Cys6-Phe7 bond relative to wtCNP22 (Recombinant human NEP; data not shown): resistance or improved resistance; resistance to cleavage of the Gly8-Leu9 bond (Recombinant human NEP; in the presence of 1 ug/mL NEP, data not shown): exhibited resistance
40 ± 2%	99 ± 13%	CC[C@H](C)[C@@H]1NC(=O)[C@H](CCCNC(=N)N)NC(=O)[C@H](CC(=O)O)NC(=O)[C@H](CC(C)C)NC(=O)[C@H](CCCCN)NC(=O)[C@H](CC(C)C)NC(=O)CNC(=O)[C@H](Cc2ccccc2)NC(=O)[C@@H](NC(=O)CNC(=O)[C@H](CCCNC(=N)N)NC(=O)[C@H](CO)NC(=O)[C@H](CC(C)C)NC(=O)CNC(=O)[C@H](CCCNC(=N)N)NC(=O)[C@H](CCCNC(=N)N)NC(=O)[C@H](CC(N)=O)NC(=O)[C@H](C)NC(=O)CNC(=O)CCOCCOCCOCCOCCOCCOCCOCCOCCOCCOCCOCCOC)CSSC[C@@H](C(=O)O)NC(=O)CNC(=O)[C@H](CC(C)C)NC(=O)CNC(=O)[C@H](CO)NC(=O)[C@H](CCSC)NC(=O)[C@H](CO)NC(=O)CNC1=O [PEO12-GANRR-CNP22, K4R (CNP27)] ({CH3O(CH2CH2O)11CH2CH2CO}-GANRRGLSRGCFGLKLDRIGSMSGLGC-OH; disulfide 11-27; C-terminus assumed)				> 2.67 h	NPR-B stimulation activity / cGMP production compared with wtCNP22 (in words) (NPR-B; NIH3T3 cells): substantially the same NPR-B stimulation activity as CNP22; resistance to NEP cleavage/degradation (in words) (Recombinant human NEP): much more resistant to NEP degradation than CNP22
